Laboratory results taken from ChEMBL document CHEMBL5512674, “Novel Acyl Thiourea-Based Hydrophobic Tagging Degraders Exert Potent Anti-Influenza Activity through Two Distinct Endonuclease Polymerase Acidic-Targeted Degradation Pathways” (J Med Chem, 2024).
Active and inactive are the calls of the source. The rule behind the calls is not given here.

How the values were obtained:
[1] = Cytotoxicity against human HEK293T cells assessed as reduction in cell viability incubated for 48 hrs by CCK-8 assay; format: toxicity, cell-based, HEK-293T
Influenza A virus [2] = test: Anti-influenza activity against Influenza A virus H3N2 infected in HEK293T cells assessed as reduction in virus-induced cytopathic effect incubated for 48 hrs by CCK-8 assay; format: functional, organism-based; conditions: H3N2, HEK-293T
Influenza B virus [3] = test: Anti-influenza activity against Influenza B virus Yamagata/16/88 infected in HEK293T cells assessed as reduction in virus-induced cytopathic effect incubated for 48 hrs by CCK-8 assay; format: functional, organism-based; conditions: Yamagata/16/88, HEK-293T
Influenza B virus [4] = test: Anti-influenza activity against Influenza B virus Victoria/2/87 infected in HEK293T cells assessed as reduction in virus-induced cytopathic effect incubated for 48 hrs by CCK-8 assay; format: functional, organism-based; conditions: Victoria/2/87, HEK-293T
Influenza A virus [5] = test: Anti-influenza activity against Influenza A virus A/WSN/33(H1N1) infected in HEK293T cells assessed as reduction in virus-induced cytopathic effect incubated for 48 hrs by CCK-8 assay; format: functional, organism-based; conditions: HEK-293T
[6] = Selectivity index, ratio of CC50 for cytotoxicity against human HEK293T cells to EC50 for anti-influenza activity against Influenza A virus A/WSN/33(H1N1) infected in HEK293T cells assessed as reduction in virus-induced cytopathic effect; format: toxicity, cell-based; conditions: read-out: Ratio CC50/EC50
Influenza A virus [7] = test: Anti-influenza activity against Influenza A virus A/PR/8/34 (H1N1) infected in MDCK cells assessed as inhibition of viral growth at 100 uM incubated for 48 hrs by luciferase assay relative to control; format: functional
[8] = target: T1, Protein cereblon/Androgen receptor (Homo sapiens) (UniProt P10275+Q96SW2); test: PROTAC activity at Influenza A virus A/WSN/33(H1N1) flag tagged Polymerase acidic protein/CRBN (unknown origin) expressed in HEK293T cells assessed as degradation of PA expression at 5 uM incubated for 24 hrs by Western blotting analysis; format: cell-based
T1 sequence (P10275 whole entry, looked up): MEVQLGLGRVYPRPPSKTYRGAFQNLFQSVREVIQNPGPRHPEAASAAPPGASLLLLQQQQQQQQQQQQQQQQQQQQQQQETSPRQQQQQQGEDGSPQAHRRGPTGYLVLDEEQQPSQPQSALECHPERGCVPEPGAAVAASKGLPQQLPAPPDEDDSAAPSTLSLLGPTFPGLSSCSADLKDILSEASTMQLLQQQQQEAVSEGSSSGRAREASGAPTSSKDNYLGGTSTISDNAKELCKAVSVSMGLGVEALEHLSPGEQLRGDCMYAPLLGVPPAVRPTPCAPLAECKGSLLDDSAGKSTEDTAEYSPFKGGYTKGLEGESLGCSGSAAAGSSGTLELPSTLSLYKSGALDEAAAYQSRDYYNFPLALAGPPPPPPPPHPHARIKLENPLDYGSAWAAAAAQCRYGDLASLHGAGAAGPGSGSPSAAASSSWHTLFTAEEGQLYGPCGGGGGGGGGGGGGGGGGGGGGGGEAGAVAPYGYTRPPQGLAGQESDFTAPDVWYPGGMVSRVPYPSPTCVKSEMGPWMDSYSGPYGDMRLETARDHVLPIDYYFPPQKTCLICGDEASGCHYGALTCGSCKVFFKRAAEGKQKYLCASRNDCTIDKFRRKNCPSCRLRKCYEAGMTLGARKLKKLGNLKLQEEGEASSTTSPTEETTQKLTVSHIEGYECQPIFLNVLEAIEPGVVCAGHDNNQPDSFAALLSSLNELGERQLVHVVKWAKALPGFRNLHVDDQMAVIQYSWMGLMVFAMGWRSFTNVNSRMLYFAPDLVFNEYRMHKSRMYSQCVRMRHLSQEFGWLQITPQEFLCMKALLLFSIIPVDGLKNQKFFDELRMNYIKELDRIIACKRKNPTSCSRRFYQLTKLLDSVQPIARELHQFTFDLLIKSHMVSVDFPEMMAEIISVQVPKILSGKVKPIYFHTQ
T1 sequence (Q96SW2 whole entry, looked up): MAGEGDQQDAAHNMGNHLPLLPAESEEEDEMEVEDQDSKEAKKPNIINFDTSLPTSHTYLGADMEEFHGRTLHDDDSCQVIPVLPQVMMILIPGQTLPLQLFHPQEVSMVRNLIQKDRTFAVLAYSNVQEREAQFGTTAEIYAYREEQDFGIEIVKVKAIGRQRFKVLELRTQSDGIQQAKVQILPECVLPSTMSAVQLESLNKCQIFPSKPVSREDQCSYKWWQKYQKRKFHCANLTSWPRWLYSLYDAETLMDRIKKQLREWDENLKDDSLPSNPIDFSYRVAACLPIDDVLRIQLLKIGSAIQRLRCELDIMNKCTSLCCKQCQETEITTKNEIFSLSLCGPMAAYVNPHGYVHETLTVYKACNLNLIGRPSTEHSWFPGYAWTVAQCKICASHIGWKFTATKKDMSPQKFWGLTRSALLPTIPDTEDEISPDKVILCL

[9] = target: T1, Protein cereblon/Androgen receptor (Homo sapiens); test: PROTAC activity at Influenza A virus A/WSN/33(H1N1) flag tagged Polymerase acidic protein/CRBN (unknown origin) expressed in HEK293T cells assessed as degradation of PA expression at 10 uM incubated for 16 hrs by Western blotting analysis; format: cell-based
[10] = target: T2, von Hippel-Lindau disease tumor suppressor/Polymerase basic protein 2 (Influenza A virus (strain A/Puerto Rico/8/1934 H1N1)) (UniProt P40337+P03428); test: PROTAC activity at Influenza A virus A/WSN/33(H1N1) flag tagged Polymerase basic protein 2/VHL (unknown origin) expressed in HEK293T cells assessed as degradation of PB2 expression at 10 ug/ml incubated for 24 hrs by Western blotting analysis; format: cell-based; conditions: dose 10.0 µg/ml
T2 sequence (P03428 whole entry, looked up): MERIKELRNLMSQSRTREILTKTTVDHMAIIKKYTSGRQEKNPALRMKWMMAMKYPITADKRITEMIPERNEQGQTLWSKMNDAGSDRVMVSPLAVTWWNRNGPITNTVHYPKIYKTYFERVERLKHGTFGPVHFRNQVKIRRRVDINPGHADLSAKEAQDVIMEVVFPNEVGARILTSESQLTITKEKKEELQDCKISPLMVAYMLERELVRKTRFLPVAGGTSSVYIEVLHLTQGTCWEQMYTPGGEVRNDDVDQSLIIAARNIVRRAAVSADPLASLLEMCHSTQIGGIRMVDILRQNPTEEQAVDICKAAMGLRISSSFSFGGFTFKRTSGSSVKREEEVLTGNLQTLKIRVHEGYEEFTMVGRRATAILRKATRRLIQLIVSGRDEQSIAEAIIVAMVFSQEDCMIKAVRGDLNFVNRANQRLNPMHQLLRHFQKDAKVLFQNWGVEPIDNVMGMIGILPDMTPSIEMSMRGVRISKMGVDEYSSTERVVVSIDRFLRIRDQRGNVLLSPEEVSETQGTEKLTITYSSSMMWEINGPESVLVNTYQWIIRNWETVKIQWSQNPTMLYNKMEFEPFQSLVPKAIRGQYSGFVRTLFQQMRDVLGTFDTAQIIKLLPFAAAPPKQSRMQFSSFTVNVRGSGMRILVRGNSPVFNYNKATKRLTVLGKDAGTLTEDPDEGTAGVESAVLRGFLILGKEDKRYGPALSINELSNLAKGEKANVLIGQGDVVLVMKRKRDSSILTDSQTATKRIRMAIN
T2 sequence (P40337 whole entry, looked up): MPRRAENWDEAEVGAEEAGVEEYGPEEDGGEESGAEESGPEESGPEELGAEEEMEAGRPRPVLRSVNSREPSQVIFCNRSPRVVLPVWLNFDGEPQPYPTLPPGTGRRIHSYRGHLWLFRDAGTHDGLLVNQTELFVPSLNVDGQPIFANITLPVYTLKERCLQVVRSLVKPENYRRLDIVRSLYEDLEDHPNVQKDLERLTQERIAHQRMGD

[11] = target: T3, von Hippel-Lindau disease tumor suppressor/Polymerase acidic protein (Influenza A virus (A/Puerto Rico/8/1934(H1N1))) (UniProt P03433+P40337); test: PROTAC activity at Influenza A virus A/WSN/33(H1N1) flag tagged Polymerase acidic protein/VHL (unknown origin) expressed in HEK293T cells assessed as degradation of PA expression at 10 uM incubated for 24 hrs by Western blotting analysis; format: cell-based
[12] = target: T4, von Hippel-Lindau disease tumor suppressor/Polymerase basic protein 1 (Influenza A virus (strain A/Puerto Rico/8/1934 H1N1)) (UniProt P03431+P40337); test: PROTAC activity at Influenza A virus A/WSN/33(H1N1) flag tagged Polymerase basic protein 1/VHL (unknown origin) expressed in HEK293T cells assessed as degradation of PB1 expression at 10 ug/ml incubated for 24 hrs by Western blotting analysis; format: cell-based; conditions: dose 10.0 µg/ml
T4 sequence (P03431 whole entry, looked up): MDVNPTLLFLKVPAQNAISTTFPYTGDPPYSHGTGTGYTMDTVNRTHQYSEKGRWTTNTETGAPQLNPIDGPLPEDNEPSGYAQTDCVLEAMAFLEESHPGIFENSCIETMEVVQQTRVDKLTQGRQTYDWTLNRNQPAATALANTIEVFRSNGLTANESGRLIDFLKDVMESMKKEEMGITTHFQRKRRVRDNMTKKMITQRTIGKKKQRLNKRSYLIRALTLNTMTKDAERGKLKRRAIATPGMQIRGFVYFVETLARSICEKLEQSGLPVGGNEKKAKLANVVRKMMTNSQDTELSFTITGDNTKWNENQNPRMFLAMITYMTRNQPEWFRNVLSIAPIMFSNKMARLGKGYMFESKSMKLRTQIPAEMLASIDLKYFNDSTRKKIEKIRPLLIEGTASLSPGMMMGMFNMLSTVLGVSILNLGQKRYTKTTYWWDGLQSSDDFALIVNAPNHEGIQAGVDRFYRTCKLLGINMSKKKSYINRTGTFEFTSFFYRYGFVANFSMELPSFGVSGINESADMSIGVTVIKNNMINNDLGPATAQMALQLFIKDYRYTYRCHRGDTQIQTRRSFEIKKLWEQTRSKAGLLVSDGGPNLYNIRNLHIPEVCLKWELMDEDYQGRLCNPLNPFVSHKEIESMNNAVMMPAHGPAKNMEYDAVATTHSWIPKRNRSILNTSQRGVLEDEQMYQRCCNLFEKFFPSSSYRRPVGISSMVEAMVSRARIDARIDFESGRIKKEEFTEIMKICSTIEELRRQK
T4 sequence (P40337 whole entry, looked up): as the sequence (P40337 whole entry, looked up) above

[13] = target: von Hippel-Lindau disease tumor suppressor/Polymerase acidic protein (Influenza A virus (A/Puerto Rico/8/1934(H1N1)), UniProt P03433+P40337); test: PROTAC activity at Influenza A virus A/WSN/33(H1N1) flag tagged Polymerase acidic protein/VHL (unknown origin) expressed in HEK293T cells assessed as degradation of PA expression incubated for 24 hrs by Western blotting analysis; format: cell-based
[14] = target: T2, von Hippel-Lindau disease tumor suppressor/Polymerase basic protein 2 (Influenza A virus (strain A/Puerto Rico/8/1934 H1N1)); test: PROTAC activity at Influenza A virus A/WSN/33(H1N1) flag tagged Polymerase basic protein 2/VHL (unknown origin) expressed in HEK293T cells assessed as degradation of PB2 expression at 0.1 to 10 uM incubated for 24 hrs by Western blotting analysis; format: cell-based; conditions: dose 0.1-10 µM
[15] = target: T2, von Hippel-Lindau disease tumor suppressor/Polymerase basic protein 2 (Influenza A virus (strain A/Puerto Rico/8/1934 H1N1)); test: PROTAC activity at Influenza A virus A/WSN/33(H1N1) flag tagged Polymerase basic protein 2/VHL (unknown origin) expressed in HEK293T cells assessed as degradation of PB2 expression at 1 ug/ml incubated for 24 hrs by Western blotting analysis; format: cell-based; conditions: dose 1.0 µg/ml
[16] = target: T4, von Hippel-Lindau disease tumor suppressor/Polymerase basic protein 1 (Influenza A virus (strain A/Puerto Rico/8/1934 H1N1)); test: PROTAC activity at Influenza A virus A/WSN/33(H1N1) flag tagged Polymerase basic protein 1/VHL (unknown origin) expressed in HEK293T cells assessed as degradation of PB1 expression at 0.1 to 10 uM incubated for 24 hrs by Western blotting analysis; format: cell-based; conditions: dose 0.1-10 µM
[17] = target: T4, von Hippel-Lindau disease tumor suppressor/Polymerase basic protein 1 (Influenza A virus (strain A/Puerto Rico/8/1934 H1N1)); test: PROTAC activity at Influenza A virus A/WSN/33(H1N1) flag tagged Polymerase basic protein 1/VHL (unknown origin) expressed in HEK293T cells assessed as degradation of PB1 expression at 1 ug/ml incubated for 24 hrs by Western blotting analysis; format: cell-based; conditions: dose 1.0 µg/ml
[18] = Stability in human plasma assessed as compound remaining measured after 5 mins by LC-MS/MS analysis; format: ADME, cell-free; conditions: read-out: Stability
[19] = Half life in human plasma by LC-MS/MS analysis; format: ADME, cell-free
[20] = Stability in human plasma assessed as compound remaining measured after 30 mins by LC-MS/MS analysis; format: ADME, cell-free; conditions: 0.5 h, BLD = below limit of detection
[21] = Stability in human plasma assessed as compound remaining measured after 120 mins by LC-MS/MS analysis; format: ADME, cell-free; conditions: 2 h, BLD = below limit of detection
[22] = Stability in human plasma assessed as compound remaining measured after 15 mins by LC-MS/MS analysis; format: ADME, cell-free; conditions: 0.25 h, BLD = below limit of detection
[23] = Stability in human plasma assessed as compound remaining measured after 60 mins by LC-MS/MS analysis; format: ADME, cell-free; conditions: read-out: Stability
[24] = Stability in human plasma assessed as compound remaining by LC-MS/MS analysis; format: ADME, cell-free
[25] = target: T3, von Hippel-Lindau disease tumor suppressor/Polymerase acidic protein (Influenza A virus (A/Puerto Rico/8/1934(H1N1))); test: PROTAC activity at Influenza A virus A/WSN/33(H1N1) flag tagged Polymerase acidic protein/VHL (unknown origin) expressed in HEK293T cells assessed as degradation of PA expression at 5 uM incubated for 24 hrs by Western blotting analysis; format: cell-based
[26] = Cytotoxicity against dog MDCK cells assessed as reduction in cell viability incubated for 48 hrs by CCK-8 assay; format: toxicity, cell-based, Canis lupus familiaris
Influenza A virus [27] = test: Anti-influenza activity against Influenza A virus A/WSN/33(H1N1) infected in MDCK cells assessed as downregulation of nucleoprotein expression at 100 nM incubated for 24 hrs by Western blotting analysis relative to control; format: functional
[28] = target: T3, von Hippel-Lindau disease tumor suppressor/Polymerase acidic protein (Influenza A virus (A/Puerto Rico/8/1934(H1N1))); test: PROTAC activity at Influenza A virus A/WSN/33(H1N1) flag tagged Polymerase acidic protein/VHL (unknown origin) expressed in HEK293T cells assessed as degradation of PA expression at 10 uM incubated for 16 hrs by Western blotting analysis; format: cell-based
[29] = Hepatic extraction ratio in dog liver microsomes preincubated for 5 mins followed by NADPH addition and measured for 45 mins by LC-MS analysis; format: ADME, Canis lupus familiaris, Microsome; conditions: time 50 min, read-out: ERH
[30] = Hepatic extraction ratio in human liver microsomes preincubated for 5 mins followed by NADPH addition and measured for 45 mins by LC-MS analysis; format: ADME, Microsome; conditions: time 50 min, read-out: ERH
[31] = Hepatic extraction ratio in mouse liver microsomes preincubated for 5 mins followed by NADPH addition and measured for 45 mins by LC-MS analysis; format: ADME, Microsome; conditions: time 50 min, read-out: ERH
Influenza A virus [32] = test: Anti-influenza activity against Influenza A virus A/PR/8/34 (H1N1) infected in MDCK cells assessed as inhibition of viral growth incubated for 48 hrs by luciferase assay; format: functional, organism-based
Influenza A virus [33] = test: Anti-influenza activity against Influenza A virus A/PR/8/34 (H1N1) infected in MDCK cells assessed as inhibition of viral growth at 0.8 nM incubated for 48 hrs by luciferase assay relative to control; format: functional
Influenza A virus [34] = test: Anti-influenza activity against Influenza A virus A/WSN/33(H1N1) infected in MDCK cells assessed as downregulation of nucleoprotein expression at 1.56 to 100 nM incubated for 24 hrs by Western blotting analysis; format: functional, organism-based; conditions: dose 1.56-100 nM

Structure (SMILES): NC(=O)c1nc(F)cnc1O [FAVIPIRAVIR]
- CC50 at 48 h [1]: > 100000 nM
- EC50 (Influenza A virus [2]): > 10000 nM
- EC50 (Influenza B virus [3]): > 10000 nM
- EC50 (Influenza B virus [4]): > 10000 nM
- EC50 (Influenza A virus [5]): 8290 nM
- selectivity ratio [6]: > 18.1

Structure (SMILES): NC12CC3CC(CC(C3)C1)C2 [AMANTADINE]
- inhibition at 100 µM (Influenza A virus [7]): 62.3%
- CC50 at 48 h [1]: > 100000 nM
- EC50 (Influenza A virus [5]): 1790 nM
- selectivity ratio [6]: > 55.9

Structure (SMILES): CC(C)(C)c1ccc(C(=O)NC(=S)Nc2ccc(NC(=O)CCCCCCCNc3cccc4c3CN(C3CCC(=O)NC3=O)C4=O)cc2)cc1 (stereo not drawn)
- Activity [8]: Active
- Activity [9]: Active
- EC50 (Influenza A virus [5]): > 10000 nM

Structure (SMILES): CC(C)(C)OC(=O)NCCCC[C@H](NC(=O)OC(C)(C)C)C(=O)NCCCCCCCCC(=O)Nc1ccc(NC(=S)NC(=O)c2ccc(C(C)(C)C)cc2)cc1
- CC50 at 48 h [1]: > 100000 nM
- Activity [10]: inactive
- EC50 (Influenza A virus [2]): > 10000 nM
- EC50 (Influenza B virus [3]): 130 nM
- Activity [11]: Active
- Activity [12]: inactive
- EC50 (Influenza B virus [4]): 167 nM
- DC50 [13]: 650 nM
- EC50 (Influenza A virus [5]): 21 nM
- Activity [14]: inactive
- Activity [15]: inactive
- Activity [16]: inactive
- Activity [17]: inactive
- selectivity ratio [6]: > 4760

Structure (SMILES): CCN(CC)CCOC(=O)c1ccc(N)cc1 [PROCAINE]
- remaining at 5 min [18]: 4.49%
- half-life [19]: 1.12 min
- Stability [20]: Bld
- Stability [21]: Bld
- Stability [22]: Bld
- remaining at 1 h [23]: 0.1%
- Stability [24]: 100%

Structure (SMILES): CC(C)(C)c1ccc(C(=O)NC(=S)Nc2ccc(NC(=O)CCCCCCCNC(=O)[C@@H](N)Cc3cnc[nH]3)cc2)cc1
- Activity [25]: inactive

Structure (SMILES): CCOC(=O)C1=C[C@@H](OC(CC)CC)[C@H](NC(C)=O)[C@@H](N)C1 [OSELTAMIVIR]
- CC50 at 48 h [26]: > 200000 nM
- Activity (Influenza A virus [27]): 44%

Structure (SMILES): Cc1ncsc1-c1ccc(CNC(=O)[C@@H]2C[C@@H](O)CN2C(=O)C(NCCCCCCCC(=O)Nc2ccc(NC(=S)NC(=O)c3ccc(C(C)(C)C)cc3)cc2)C(C)(C)C)cc1 (mixture of isomers)
- Activity [28]: Active
- Activity [25]: Active
- EC50 (Influenza A virus [5]): > 10000 nM

Structure (SMILES): O=C(c1ccc(F)cc1)C1CCN(CCn2c(=O)[nH]c3ccccc3c2=O)CC1 [KETANSERIN]
- hepatic extraction ratio at 0.75 h [29]: 0.697
- hepatic extraction ratio at 0.75 h [30]: 0.693
- hepatic extraction ratio at 0.75 h [31]: 0.765

Structure (SMILES): O=C1c2c(O)c(=O)ccn2N([C@@H]2c3ccccc3SCc3c2ccc(F)c3F)[C@@H]2COCCN12 [BALOXAVIR]
- CC50 at 48 h [1]: 63100 nM
- CC50 at 48 h [26]: 30900 nM
- IC50 (Influenza A virus [32]): 1.49 nM
- EC50 (Influenza A virus [2]): 5 nM
- EC50 (Influenza B virus [3]): 71 nM
- inhibition at 0.0008 µM (Influenza A virus [33]): 21%
- EC50 (Influenza B virus [4]): 6 nM
- Activity (Influenza A virus [34]): Active
- EC50 (Influenza A virus [5]): 4 nM
- selectivity ratio [6]: 16600
